Results as given in patent publication US11020414B2, “Antimicrobial compositions with cysteamine” (priority 2010, dated 2021).
Converted amounts (≈) assume the structure as drawn. “And” between values parts separate entries of the source, which are not always exact repeats. Identical values can stand only once. Like-named read-outs stand apart in the source and are kept apart here.

How the values were obtained:
[1] = tested on: Pseudomonas aeruginosa Pa01; assay: FIC index of combinations with conventional antibiotics, strain Pa01; type: cell-based; settings: strain Pa01 (Col^R), listed as Cysteamine (NM001)
Protocol: (§1) The bacterial inoculum was established by the dilution method from actively-growing cultures in Mueller-Hinton (MH) broth, standardized with 0.5 McFarland turbidity standard as described in the CLSI method M26-A.
(§2) Both the bacterial inoculum and the antimicrobial agents, including the compounds structurally related to cysteamine, were added simultaneously to the plates. The plates were incubated at 37° C. for 24 h and the optical density was read at 625 nm on a microtitre plate reader (BioTek Powerwave XS, Winooski, USA). The MIC was obtained as the lowest concentration of antimicrobial showing total inhibition of bacterial growth.
(§3) The FIC corresponds to an interaction coefficient indicating whether the combination of antimicrobial agents is synergistic, additive, antagonist or neutral. The FIC is determined by comparing the activity of an agent in combination (MIC of agent A+agent B) with the activity of the agent alone (MIC of agent A or agent B) as follow (Singh et al., 2000): FIC=MICA[combination]/MICA[alone]+MICB[combination]/MICB[alone]
(§4) Additive combinations of two antimicrobial agents are indicated by a FIC index of 1, whereas a FIC index<1 indicates synergistic combinations. Neutral combinations would give a FIC between 1 and 4, a FIC index higher than 4 indicates antagonist effects between the two antimicrobial agents.
(§5) The FIC was also calculated to assess the interaction of two antimicrobial agents in combination against bacterial samples.

[2] = tested on: Pseudomonas aeruginosa Pa058; assay: FIC index of combinations with conventional antibiotics, strain Pa058; type: cell-based; settings: strain Pa058 (Col^R, Cip^R Tob^R), listed as Cysteamine (NM001)
Protocol: as §1, §2, §3, §4, §5

[3] = tested on: Pseudomonas aeruginosa Pa57388D; assay: FIC index of combinations with conventional antibiotics, strain Pa57388D; type: cell-based; settings: strain Pa57388D (Col^R, Gent^R), listed as Cysteamine (NM001)
Protocol: as §1, §2, §3, §4, §5

[4] = tested on: Pseudomonas aeruginosa Pa01; assay: MIC determination, strain Pa01; type: cell-based
Protocol: as §1
as §2, with “The MIC was obtained as the lowest concentration of antimicrobial showing total inhibition of bacterial growth.” left out
(§6) A number of compounds related in chemical structure to cysteamine were examined for antimicrobial activity; cystamine (dihydrochloride salt), taurine and 2,3-dimercaptosuccinic acid. Other compounds chemically related to cysteamine are known, but are toxic, and are therefore of no utility in a drug of this nature.

[5] = tested on: Pseudomonas aeruginosa NH57388A; assay: MIC determination, strain NH57388A; type: cell-based
Protocol: as §1
as §2, with “The MIC was obtained as the lowest concentration of antimicrobial showing total inhibition of bacterial growth.” left out
as §6

[6] = tested on: Burkholderia cepacia NCTC10743; assay: MIC100 and FIC of cysteamine and tobramycin, MH broth (CLSI) and artificial sputum medium; type: cell-based
Protocol: as §2, §3
(§7) The complex pathophysiology of CF is characterized by airway obstruction caused by abnormal mucus secretion and infection, with 60-80% of patients being chronically infected with the biofilm-forming bacteria Pseudomonas aeruginosa (George et al., 2009). With a prevalence of up to 10% in adult CF patients, B. cepacia complex is a rare but major concern due to its high virulence, morbidity and transmissibility (O'Malley, 2009; Brüssow, 2012). We tested the antimicrobial activity of cysteamine-tobramycin combinations in artificial sputum medium (Yang, et al., 2011) against 4 P. aeruginosa (PAO1, ATCC27853, DSMZ1128 and DSMZ1299) and 2 B. cepacia complex strains (NCTC10743 and NCTC10744).

[7] = tested on: Burkholderia cepacia NCTC10744; assay: as above; type: cell-based; settings: read-out: MIC100, agent alone
Protocol: as §2, §3, §7

[8] = tested on: Pseudomonas planktonic cells; assay: Antibacterial activity of Tobramycin and cysteamine, separately and combined (FIG. 1); type: cell-based; settings: FIG. 1b
Protocol: FIG. 1A and FIG. 1B: provide a comparison of the antibacterial activity of Tobramycin and cysteamine (NM001) against Pseudomonas planktonic cells when administered separately, and in combined form. NM001 reduces the MIC of Tobramycin against planktonic cells by at least 4-fold (FIG. 1b)
as §2

[9] = tested on: P. aeruginosa PAO1 biofilm; assay: Minimum biofilm eradication concentration against established biofilm (FIG. 4); type: cell-based, Pseudomonas aeruginosa
[10] = tested on: 4 P. aeruginosa (PAO1, ATCC27853, DSMZ1128 and DSMZ1299) and 2 B. cepacia complex strains (NCTC10743 and NCTC10744); assay: microbe, parasite or virus in culture; type: cell-based, Pseudomonas aeruginosa; Burkholderia cepacia complex; settings: Pseudomonas aeruginosa, read-out: MIC100
Description: as §7

[11] = tested on: P. aeruginosa PAO1 biofilms; assay: Post-antimicrobial effect and metabolic activity of biofilms after treatment (FIG. 9, 10); type: cell-based, Pseudomonas aeruginosa; settings: 24 h following treatment of the biofilms
Protocol: FIG. 9: is a graph showing the post-antimicrobial effect of cysteamine (NM001) in combination with Tobramycin versus P. aeruginosa PAO1 biofilms. […] The PAE was determined by transfer of 10 μl biofilm cultures into 90 μl sterile MH broth in triplicate in microtitre plates following treatment. Bacterial growth was followed on a BioTek plate reader for 24 h at 37° C. Microbial metabolic activity following treatment of the biofilms was determined using the same method as for PAE determination and adding 10% (v/v) of a fluorescent cell viability indicator, resazurin (Alamar Blue, Serotec), which detected microbial metabolic activity growth by increase in fluorescence. Fluorescence was measured over 24 h at 37° C. using a BioTek Synergy HT microplate reader (BioTek, Winooski, USA) at 530/590 nm.

[12] = tested on: Pseudomonas aeruginosa cells; assay: Tobramycin alone and with cysteamine in non-mucous and mucous environment (FIG. 3); type: cell-based; settings: mucous environment (NaCl and/or mucin)
Description: FIG. 3: provides a comparison of the activity of Tobramycin alone and when in combination with cysteamine (NM001) against Pseudomonas aeruginosa cells cultured in a non-mucous environment and when cultured in a mucous environment replicating that found within the CF lung (in the presence of NaCl and/or mucin).

[13] = in combination with Ciprofloxacin

With NCCS [Cysteamine, cysteamine] the “FICI (Additive) Col” value ([1]; in combination with Colistin) was 0.53 and 0.56, the “FICI (Synergy) Col” value ([1]; in combination with Colistin) was 0.38 and 0.31 and 0.25 and the “FICI (Additive) Gent” value ([1]; in combination with Gentamicin) was 0.5 and 0.53 and 0.63. The “FICI (Synergy) Gent” value ([1]; in combination with Gentamicin) was 0.38, the “FICI (Additive) Tob” value ([1]; in combination with Tobramycin) was 0.63 and the “FICI (Synergy) Tob” value ([1]; in combination with Tobramycin) was 0.31 and 0.28 and 0.25. For the same molecule, the “FICI (Additive) Cip” value [2, 13] was 0.53 and 0.56, the “FICI (Additive) Col” value ([2]; in combination with Colistin) was 0.75 and 0.53 and 0.56 and 0.5 and the “FICI (Additive) Gent” value ([2]; in combination with Gentamicin) was 0.56 and 0.5 and 0.75. The “FICI (Additive) Tob” value ([2]; in combination with Tobramycin) was 0.52 and 0.56 and 0.5 and 0.53 and 0.63 and 0.75, the “FICI (Additive) Cip” value [3, 13] was 0.53 and 0.56 and 0.52 and 0.75 and the “FICI (Additive) Col” value ([3]; in combination with Colistin) was 0.62 and 0.53 and 0.56 and 0.5. The “FICI (Synergy) Col” value ([3]; in combination with Colistin) was 0.31 and 0.38, the “FICI (Additive) Gent” value ([3]; in combination with Gentamicin) was 0.5 and 0.63 and 0.51 and the “FICI (Synergy) Gent” value ([3]; in combination with Gentamicin) was 0.38. For the same molecule, the “FICI (Additive) Tob” value ([3]; in combination with Tobramycin) was 0.56 and 0.51 and 0.52, the “FICI (Synergy) Tob” value ([3]; in combination with Tobramycin) was 0.38 and 0.31 and 0.25 and the MIC50 [4] was 250 to 500 mg/L (≈ 3.24 to 6.48 mM). The MIC90 [4] was 500 mg/L (≈ 6.48 mM), the MIC ([4]; read-out: MIC100) was 667 mg/L (≈ 8.64 mM) and the MIC50 [5] was 250 mg/L (≈ 3.24 mM). For the same molecule, the MIC90 [5] was 250 to 500 mg/L (≈ 3.24 to 6.48 mM), the MIC ([5]; read-out: MIC100) was 667 mg/L (≈ 8.64 mM) and the MIC ([6]; NCTC10743, B. cepacia NCTC10743, FIG. 6, read-out: MIC100, agent alone) was 500 mg/L. It also gave an MIC ([6]; NCTC10743, B. cepacia NCTC10743, in both media (MH broth and ASM), FIG. 11, read-out: MIC100, agent alone) of 500 mg/L, an MIC ([6]; NCTC10743, B. cepacia NH10743, ASM (Artificial Sputum Medium), read-out: MIC100, agent alone) of 500 mg/L and an MIC ([6]; NCTC10743, B. cepacia NH10743, CLSI, read-out: MIC100, agent alone) of 250 mg/L. The MIC ([7]; NCTC10744, B. cepacia NH10744, ASM (Artificial Sputum Medium)) was 500 mg/L, the MIC ([7]; NCTC10744, B. cepacia NH10744, CLSI) was 250 mg/L and the “reduction of the MIC of Tobramycin by NM001” value [8] was “at least 4 fold”. The “minimum biofilm eradication concentration (MBEC), agent alone” value [9] was 1000 µg/mL, the MIC [10] was 250 to 500 mg/L and the “post-antimicrobial effect (delayed bacterial growth, reduced metabolic activity of the biofilm)” value [11] was “significant PAE”. The “effect on activity of conventional antibiotics” value [12] was “restores antibiotic activity”.
